The text below walks through data of ChEMBL document CHEMBL3272037, “Antitumor agents. 21. A proposed mechanism for inhibition of cancer growth by tenulin and helenalin and related cyclopentenones” (J Med Chem, 1977).

The structures appear in SMILES notation. Values after ≈ are worked out from the molar mass of the structure shown. Active and inactive are the calls of the source. The calls are words filed in the database; no cut-off is given here.

One series relates to W256. The experiment in a line: Antitumor activity against rat Walker 256 cells allografted in Sprague-Dawley rat at 2.5 mg/kg/day, ip relative to control. The following applies: route intraperitoneal. In kind it is functional.
The next series concerns P388. The series is described as follows: Antitumor activity against mouse P388 cells allografted in DBA/2 mouse at 25 mg/kg/day, ip relative to control. It is filed as functional. The settings on record: route intraperitoneal.
In series [1] the test system is Ehrlich. The series is described as follows: Antitumor activity against mouse EAC cells allografted in CF1 mouse assessed as survival at 33.3 mg/kg/day, ip after 7 days. It is filed as functional, organism-based.
Series [2] can be described thus: Cytotoxicity against human Hep2 cells. In kind it is functional. The settings on record: HEp-2, read-out: ED50 (the source's name).
The test system of series [3] is Ehrlich. The series is described as follows: Antitumor activity against mouse EAC cells allografted in CF1 mouse assessed as tumor growth inhibition at 33.3 mg/kg/day, ip after 7 days. It is filed as functional. The settings on record: 168 h, route intraperitoneal, read-out: TGI.
Series [4] is described as follows: Stability of the compound assessed as reactivity with histidine at 28 mg after 7 days by NMR analysis. It is filed as physicochemical. The settings on record: 168 h.
Series [5] in a line: Stability of the compound assessed as reactivity with reduced glutathione at 28 mg after 16 hrs by NMR analysis. In kind it is physicochemical.
Series [6] in a line: Stability of the compound assessed as reactivity with L-cysteine by NMR analysis. In kind it is physicochemical.
Series [7] is described as follows: Stability of the compound assessed as reactivity with L-cysteine at 10 mg after 4 hrs by NMR analysis. In kind it is physicochemical.
The subject of series [8] is Ehrlich. The experiment in a line: Antitumor activity against mouse EAC cells allografted in CF1 mouse assessed as [methyl-14C]thymidine incorporation to DNA at 0.125 mg/day administered from day 5 to day 7 measured on day 8 by scintillation counting analysis relative to control. In kind it is functional.
The nature of series [9]: Stability of the compound assessed as reactivity with reduced glutathione at 10 mg after 4 hrs by NMR analysis. In kind it is physicochemical.
Series [10] can be described thus: Stability of the compound assessed as reactivity with oxidized glutathione at 10 mg after 4 hrs by NMR analysis. It is filed as physicochemical.
Series [11] concerns Ehrlich. The series is described as follows: Antitumor activity against mouse EAC cells allografted in CF1 mouse assessed as ascitocrit count per mililitre of fluid at 0.125 mg/day administered from day 5 to day 7 measured on day 8 by hemocytometry relative to control. It is filed as functional.
For series [12], the system named is Ehrlich. The series is described as follows: Antitumor activity against mouse EAC cells allografted in CF1 mouse assessed as cell viability at 0.125 mg/day administered from day 5 to day 7 measured on day 8 by trypan blue assay relative to control. It is filed as functional, cell-based.
Series [13] is described as follows: Binding affinity to dATP (unknown origin) at 0.015 ug by UV-spectrophotometry.
In series [14] the test system is Ehrlich. The experiment in a line: Antitumor activity against mouse EAC cells allografted in CF1 mouse assessed as [gamma-32P] incorporation into nonhistone at 0.125 mg/day administered from day 5 to day 7 measured on day 8 relative to control. It is filed as functional.
Series [15] in a line: Binding affinity to dAMP (unknown origin) at 0.015 ug by UV-spectrophotometry.
For series [16], the system named is Ehrlich. The experiment in a line: Antitumor activity against mouse EAC cells allografted in CF1 mouse assessed as free lysosomal DNAse activity at 0.125 mg/day administered from day 5 to day 7 measured on day 8 relative to control. It is filed as functional.
In series [17] the test system is Ehrlich. The experiment in a line: Antitumor activity against mouse EAC cells allografted in CF1 mouse assessed as 3',5' cAMP level at 0.125 mg/day administered from day 5 to day 7 measured on day 8 by RIA relative to control. In kind it is functional.
Series [18] in a line: Binding affinity to dGMP (unknown origin) at 0.015 ug at pH 7.2 after 24 hrs by UV-spectrophotometry.
Series [19] deals with Ehrlich. The experiment in a line: Antitumor activity against mouse EAC cells allografted in CF1 mouse assessed as [gamma-32P] incorporation into histone at 0.125 mg/day administered from day 5 to day 7 measured on day 8 relative to control. It is filed as functional.
The subject of series [20] is Ehrlich. The series is described as follows: Antitumor activity against mouse EAC cells allografted in CF1 mouse assessed as DNA content at 0.125 mg/day administered from day 5 to day 7 measured on day 8 by UV-spectrophotometry relative to control. In kind it is functional.
Series [21] has as its system Ehrlich. The experiment in a line: Antitumor activity against mouse EAC cells assessed as nuclear DNA polymerase activity at 0.6 mg measured on day 8 relative to control. In kind it is functional.
A short description of series [22]: Binding affinity to dGTP (unknown origin) at 0.015 ug at pH 7.2 after 24 hrs by UV-spectrophotometry.
Series [23] has as its system Ehrlich. The series is described as follows: Antitumor activity against mouse EAC cells allografted in CF1 mouse assessed as chromatin protein content at 0.125 mg/day administered from day 5 to day 7 measured on day 8 relative to control. In kind it is functional.
The nature of series [24]: Binding affinity to DNA (unknown origin) at 0.015 ug at pH 7.2 after 24 hrs by UV-spectrophotometry.
Series [25] is described as follows: Binding affinity to dGMP (unknown origin) by NMR analysis.
Series [26] deals with Ehrlich. The series is described as follows: Antitumor activity against mouse EAC cells allografted in CF1 mouse assessed as nuclear DNA polymerase activity at 0.125 mg/day administered from day 5 to day 7 measured on day 8 relative to control. In kind it is functional.
Series [27] concerns Ehrlich. The experiment in a line: Antitumor activity against mouse EAC cells assessed as tissue SH stimulation at 0.6 mg measured on day 8 by Ellman method relative to control. It is filed as functional.
In series [28] the test system is Ehrlich. The series is described as follows: Antitumor activity against mouse EAC cells allografted in CF1 mouse assessed as chromatin protein content at 0.25 mg/day administered from day 5 to day 7 measured on day 8 relative to control. In kind it is functional.
In series [29] the test system is Ehrlich. The series is described as follows: Antitumor activity against mouse EAC cells allografted in CF1 mouse assessed as cell viability at 0.25 mg/day administered from day 5 to day 7 measured on day 8 by trypan blue assay relative to control. It is filed as functional, cell-based.
The test system of series [30] is Ehrlich. The series is described as follows: Antitumor activity against mouse EAC cells allografted in CF1 mouse assessed as ascitocrit count per mililitre of fluid at 0.25 mg/day administered from day 5 to day 7 measured on day 8 by hemocytometry relative to control. It is filed as functional.
Series [31] has as its system Ehrlich. The experiment in a line: Antitumor activity against mouse EAC cells allografted in CF1 mouse assessed as nuclear DNA polymerase activity at 0.25 mg/day administered from day 5 to day 7 measured on day 8 relative to control. It is filed as functional.
The subject of series [32] is Ehrlich. The series is described as follows: Antitumor activity against mouse EAC cells allografted in CF1 mouse assessed as free lysosomal DNAse activity at 0.25 mg/day administered from day 5 to day 7 measured on day 8 relative to control. It is filed as functional.
In series [33] the test system is Ehrlich. The series is described as follows: Antitumor activity against mouse EAC cells allografted in CF1 mouse assessed as [methyl-14C]thymidine incorporation to DNA at 0.25 mg/day administered from day 5 to day 7 measured on day 8 by scintillation counting analysis relative to control. It is filed as functional.
The test system of series [34] is Ehrlich. The experiment in a line: Antitumor activity against mouse EAC cells allografted in CF1 mouse assessed as DNA content at 0.25 mg/day administered from day 5 to day 7 measured on day 8 by UV-spectrophotometry relative to control. It is filed as functional.
For series [35], the system named is Ehrlich. The series is described as follows: Antitumor activity against mouse EAC cells allografted in CF1 mouse assessed as 3',5' cAMP level at 0.25 mg/day administered from day 5 to day 7 measured on day 8 by RIA relative to control. In kind it is functional.
For series [36], the system named is Ehrlich. The experiment in a line: Antitumor activity against mouse EAC cells allografted in CF1 mouse assessed as [gamma-32P] incorporation into histone at 0.25 mg/day administered from day 5 to day 7 measured on day 8 relative to control. It is filed as functional.

As to `C[C@@H]1C[C@H]2OC(=O)[C@@H](C)[C@H]2[C@H](O)[C@]2(C)C(=O)C=C[C@@H]12`, the figures for the T/C with W256 and with P388 were 207% and 134%, respectively. The Survival result in the series on Ehrlich [1] is “Active”. The EC50 in series [2] worked out at 0.814 µg/mL (≈ 3.08 µM). In addition, the inhibition in vivo at 33.3 mg/kg/day in the series on Ehrlich [3] came to 100%.

Turning to `C[C@@H]1C[C@@H]2OC(=O)[C@]3(C)[C@@H]2[C@@H](OC3(C)O)[C@]2(C)C(=O)CC(SC[C@H](N)C(=O)O)[C@@H]12` (stereo partly drawn), the Survival result in the series with Ehrlich [1] was “Active”. In addition, the EC50 in series [2] turned out to be 13.7 µg/mL (≈ 32 µM). Further, the inhibition in vivo at 33.3 mg/kg/day in the series on Ehrlich [3] worked out at 15.8%.

The molecule `O=C1C=CCC1` yielded a T/C with W256 of 188%. For the same molecule, the Stability result in [4] was “Unstable”; in series [5], “Stable”; in [6], “Stable”. The Survival entry in the series on Ehrlich [1] was “Active”. In addition, the EC50 in [2] worked out at 50 µg/mL (≈ 609 µM). For the same molecule, the inhibition in vivo at 33.3 mg/kg/day in the series on Ehrlich [3] came to 74.8%.

In the case of `C=C1C(=O)O[C@@H]2C[C@@H](C)[C@@H]3C=CC(=O)[C@@]3(C)[C@@H](O)[C@H]12` [HELENALIN], the T/C is reported as 316% with W256 and 127% with P388. Moreover, the figures for the Stability result in series [7], in [9] and in [10] were “Stable”, “Stable” and “Unstable”, respectively. For the same molecule, the Activity is given as 12% with Ehrlich [8]; 70% with Ehrlich [11]; 63% in the series on Ehrlich [14]; 25% with Ehrlich [16]; 292% in the series on Ehrlich [17]; 30% in the series on Ehrlich [19]. Further, the Activity with Ehrlich [20] was determined as 66%; in the series with Ehrlich [21], 35%; with Ehrlich [23], 83%; in the series with Ehrlich [26], 52%; in the series with Ehrlich [27], 183%. The outcome (in the series with Ehrlich [12]; in series [13]; in series [15]; in series [18]; in series [22]; in [24]) was inactive. Moreover, in [25], the result was inactive. Also, the EC50 in series [2] is 0.1 µg/mL (≈ 0.381 µM). Besides, in the series with Ehrlich [3], the inhibition in vivo at 33.3 mg/kg/day was 100%.

As to `Sc1ncnc2nc[nH]c12` [MERCAPTOPURINE ANHYDROUS], the Survival result in the series on Ehrlich [1] was “Active”. Moreover, the inhibition in vivo at 33.3 mg/kg/day in the series with Ehrlich [3] was determined as 99.4%.

In the case of `C[C@@H]1C[C@@H]2OC(=O)[C@]3(C)[C@H]2[C@@H](OC3(C)O)[C@]2(C)C(=O)C=C[C@@H]12` (stereo partly drawn) [TENULIN], the figures for the T/C in the series on W256 and in the series with P388 were 266% and 131%, respectively. In addition, the Activity in the series on Ehrlich [28] was found to be 92%; in the series with Ehrlich [30], 43%; in the series on Ehrlich [31], 71%; with Ehrlich [32], 29%; in the series with Ehrlich [33] it was 9%; in the series with Ehrlich [21], 88%. Moreover, the Activity with Ehrlich [34] amounted to 73%; in the series with Ehrlich [35], 236%; in the series on Ehrlich [27], 203%; in the series with Ehrlich [36], 17%. The outcome (in series [13]; in series [15]; in the series with Ehrlich [29]; in series [18]; in series [22]; in series [24]) was inactive. Also, the Survival entry in the series on Ehrlich [1] was “Active”. For the same molecule, the EC50 in [2] came to 4.5 µg/mL (≈ 14.7 µM). For the same molecule, in the series on Ehrlich [3], the inhibition in vivo at 33.3 mg/kg/day was 97.3%.
